Measured values: PMC4474554 (PLoS ONE, 2015)

System: EGFR kinases (all the variants tested)
Test: In vitro binding assay (ATP beads), all variant EGFR kinases
Settings: at a concentration of 1000 μM

SMILES: Nc1ncnc2c1ncn2[C@@H]1O[C@H](COP(=O)(O)OP(=O)(O)OP(=O)(O)O)[C@@H](O)[C@H]1O [ATP]
- binding of exogenous ATP to EGFR kinases: weakly bound
